Laboratory results published in PMC5399792 (Nucleic Acids Research, 2017).
Values joined by “and” are separate entries in the source; they are usually repeats but may differ in a detail not shown here. Identical values can stand only once. Like-named read-outs stand apart in the source and are kept apart here.

Target: influenza B polymerase bound to a c/v hybrid promoter (Influenza B virus, UniProt Q5V8Y6)
Experiment: biochemical
Set-up: species or system influenza B/Memphis/13/03
[1] = 0.025 mM NTPs, capped RNA primed, T ∼ 21°C, t = 10 min, read-out: IC50 (mM), c/v hybrid promoter
[2] = 0.25 mM NTPs, capped RNA primed, T ∼ 21°C, t = 5 min, read-out: IC50 (mM), c/v hybrid promoter

Row | SMILES | IC50 (IC50 (mM), c/v hybrid promoter) | IC50 [1] | IC50 [2]
1 | Nc1ccn([C@@H]2O[C@H](COP(=O)(O)OP(=O)(O)OP(=O)(O)O)[C@@H](O)[C@H]2F)c(=O)n1 [2'F-2'dCTP] | 0.45 mM and 1.9 mM |  | 
2 | Nc1ncnc2c1ncn2[C@@H]1O[C@H](COP(=O)(O)OP(=O)(O)OP(=O)(O)O)[C@@H](O)[C@H]1F [2'F-2'dATP] |  | 0.04 mM | 0.33 mM
3 | Nc1nc2c(ncn2[C@@H]2O[C@H](COP(=O)(O)OP(=O)(O)OP(=O)(O)O)[C@@H](O)[C@H]2F)c(=O)[nH]1 [2'F-2'dGTP] |  | 0.04 mM | 0.34 mM
